Results on three molecules are retold here after paper PMC5882690, “Mechanical characteristics of beta sheet-forming peptide hydrogels are dependent on peptide sequence, concentration and buffer composition” (Royal Society Open Science, 2018).

Where a SMILES comes first, the peptide text is derived from it. [ ]: non-standard residue; d: D form. Orn = NCCC[C@H](N)C(=O)O

Series [1] addresses T1, human neutrophil elastase (Homo sapiens, UniProt P08246).
T1 construct: purchased Innovative Research, USA
T1 sequence (P08246 30-267): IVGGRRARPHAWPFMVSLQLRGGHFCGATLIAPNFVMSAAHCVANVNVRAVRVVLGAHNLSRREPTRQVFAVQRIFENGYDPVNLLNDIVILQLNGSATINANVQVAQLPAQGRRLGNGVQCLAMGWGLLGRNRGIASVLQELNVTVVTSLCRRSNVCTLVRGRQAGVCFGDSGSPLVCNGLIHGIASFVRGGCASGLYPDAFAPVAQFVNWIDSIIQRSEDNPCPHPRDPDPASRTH
As to the kind of experiment: SAP hydrogel degradation by human neutrophil elastase. The series is classed as in vitro ADME. As to conditions: human neutrophil elastase 100 µg ml^-1 (86 units ml^-1) in PBS, 37°C, 5% CO2, 20 mg ml^-1 P11-4, 15 mg ml^-1 others, Qubit Protein Assay, mean ± SD, n = 3. How it is done: SAP hydrogel dissolution and degradation properties of the peptides in the presence and absence of neutrophilic elastase and microorganisms were measured by determining the peptide content of the supernatant. Therefore, SAPs were assembled in PBS at concentrations of 20 mg ml^−1 for P11-4 and 15 mg ml^−1 for P11-8, P11-13/14 and P11-28/29. The assay was performed in a 96-well plate with gel volumes of 100 µl well^−1. 86 units ml^−1 elastase (Innovative Research, USA) (100 µg ml^−1) were added to the assembled peptides in PBS solution. After 24 h incubation at 37°C and 5% CO2, 10 µl of the supernatant was sterilely removed after 24 and 168 h and measured indirectly by monomeric peptide concentration in the supernatant using the Qubit® Protein Assay (Q33211; Thermo Fisher; fluorescence at 485/590 nm) and transferred back for the remainder of the experiment allowing peptide hydrogel degradation measurement without disturbing the hydrogel to buffer fluid balance. The measurements are based on the fact that degraded peptides cause disassembly of the fibrils, as assembly rules are no longer given, resulting in an increase in monomeric SAP in solution. SAP concentrations were calculated based on respective peptide standard curves. For data analysis, SAP concentrations measured in the supernatant were calculated as a percentage of the specific starting concentrations of each peptide system. Statistical analysis was done using a two-way ANOVA followed by Sidak's multiple comparison test.

The conditions of series [2]: cited from earlier work. An excerpt:
The topographical structure of SAP hydrogels is important for the three-dimensional arrangement of cells within scaffolds. Zhang et al. state that the fibres of SAP hydrogels resemble the nanometre scale of natural polymer networks and thus allow three-dimensional cell growth. […] (figure 1). […] Moreover, they observed the formation fibre entanglements with diameters of 30 nm. The phenomenon of fibril clustering was also reported by Zhang et al. for the peptides KFE8 and KLD12, characterized by a typical single fibre width of 7 nm and thicker diameters for the bundles of fibres.

Consider `CC(=O)N[C@@H](CCC(N)=O)C(=O)N[C@@H](CCC(N)=O)C(=O)N[C@@H](CCCNC(=N)N)C(=O)N[C@@H](Cc1ccccc1)C(=O)N[C@@H](CCCN)C(=O)N[C@@H](Cc1c[nH]c2ccccc12)C(=O)N[C@@H](CCCN)C(=O)N[C@@H](Cc1ccccc1)C(=O)N[C@@H](CCC(=O)O)C(=O)N[C@@H](CCC(N)=O)C(=O)N[C@@H](CCC(N)=O)C(N)=O` [P11-8, CH3CO-QQRFOWOFEQQ-NH2] (Ac-QQRF[Orn]W[Orn]FEQQ-NH2), for which the “relative peptide amount in supernatant (% of peptide starting concentration)” value in series [1] (1 d) came to 10.4± 3.9%; in series [1] (7 d), 10.4± 1.3%.

For the molecule KLD12 [reference compound], in series [2] (literature), the “typical single fibre width” value is listed as 7 nm.

Turning to RADA16 [reference compound], the fibre diameter result in series [2] (literature value) was “approximately 10 nm”.
